These results are taken from patent EP0024616A1, “1-(3'-Acyloxyphenyl)-2-aminoethanols, their acid addition salts, pharmaceutical compositions containing them and process for their preparation” (Klinge Pharma GmbH, priority 1979, dated 1981).

≈ marks a conversion by molar mass, not a printed value. Where a name gives a salt, the structure may show the parent alone. Read-outs that look alike come from different tables or passages of the source.

For orientation: solubility means the concentration that dissolves in the medium under given conditions. Read a low solubility as little dissolved substance.

Series [1] in a line: Minimum solubility in water. As to conditions: for Mindestlöslichkeit in Wasser: Tab. 1, minimum solubility (lower bound) of the salts in water; for solubility: water.
The subject of series [2] is Blutdruck der Katze. The series is described as follows: Blood pressure increasing effect after intraduodenal application in anaesthetised cats. It counts as in vivo, Katzen. To be noted: Felis catus, aqueous solution, anaesthetised cat; for change in vivo at 1 mg/kg: 1 mg/kg intraduodenal; for change in vivo at 3 mg/kg: 3 mg/kg intraduodenal; for change in vivo at 10 mg/kg: 10 mg/kg intraduodenal; for change in vivo at 0.3 mg/kg: 0.3 mg/kg intraduodenal; for change in vivo at 30 mg/kg: 30 mg/kg intraduodenal. Here is the method:
An 2-4 kg schweren, männlichen und weiblichen, narkotisierten Katzen [Chloralose (70 mg/kg) und Urethan 25 proz. (200 mg/kg)i.p.] wurden die Substanzen in wäßriger Lösung intraduodenal appliziert. Der Anstieg des systolischen und des diastolischen Blutdruckes wird in Prozenten des Ausgangswertes angegeben. N bedeutet Anzahl der Versuchstiere pro Versuch.

For series [3], the system named is Blutdruck. To be noted: oral; from the literature (E. Muschöll 1967); cited from earlier work.
The mark [4] stands for this setting: read-out: Diastol. Blutdruck (Anstieg).
Where [5] appears, read: read-out: Systol. Blutdruck (Anstieg).

`CCCC(=O)Oc1cccc(C(O)CN)c1` (centres unmarked) [Verbindung 3]: the “Mindestlöslichkeit in Wasser” value in series [1] was determined as 50%.

For the molecule `CCC(CC)C(=O)Oc1cccc(C(O)CN)c1` (centres unmarked) [Verbindung 10], the “Mindestlöslichkeit in Wasser” value in series [1] is on record as 50%. In series [2] (setting [4]), the change in vivo at 1 mg/kg amounted to 19 ± 3%, the change in vivo at 3 mg/kg was determined as 48 ± 11% and the change in vivo at 10 mg/kg came to 89 ± 14%. In series [2] (setting [5]), the change in vivo at 1 mg/kg is 25 ± 5%, the change in vivo at 3 mg/kg was 48 ± 11% and the change in vivo at 10 mg/kg worked out at 85 ± 11%.

Take `CC(C)(C)C(=O)Oc1cccc(C(O)CN)c1.Cl` (centres unmarked) [Verbindung 7, 1-(3'-Pivaloyloxyphenyl)-2-aminoethanol-hydrochlorid]: the “Mindestlöslichkeit in Wasser” value in series [1] is given as 50%. In series [2] (setting [4]), the change in vivo at 1 mg/kg was 17 ± 6%, the change in vivo at 3 mg/kg was 29 ± 5% and the change in vivo at 10 mg/kg amounted to 74 ± 13%. In series [2] (setting [5]), the change in vivo at 1 mg/kg was 17 ± 7%, the change in vivo at 3 mg/kg came to 37 ± 6% and the change in vivo at 10 mg/kg was determined as 79 ± 8%.

In turn, `CC(C)(C)C(=O)NCC(OC(=O)C(C)(C)C)c1cccc(OC(=O)C(C)(C)C)c1` (centres unmarked) [Verbindung 25, reference compound] registered a solubility in series [1] of 0.1 mg/mL (≈ 0.247 mM).

As to `Cc1ccc(C(=O)Oc2cccc(C(O)CN)c2)cc1` (centres unmarked) [Verbindung 20, 1-[3'-(4'-Methylbenzoyloxy)phenyl]-2-aminoethanol-hydrochlorid], the “Mindestlöslichkeit in Wasser” value in series [1] came to 50%. Besides, in series [2] (setting [4]), the change in vivo at 0.3 mg/kg worked out at 17 ± 10%, the change in vivo at 1 mg/kg is 26 ± 6% and the change in vivo at 3 mg/kg is 100 ± 24%. Also, in series [2] (setting [5]), the change in vivo at 0.3 mg/kg stood at 20 ± 10%, the change in vivo at 1 mg/kg was 28 ± 6% and the change in vivo at 3 mg/kg amounted to 122 ± 25%.

On to `NCC(O)c1cccc(OC(=O)c2ccccc2)c1` (centres unmarked) [Verbindung 18], for which the “Mindestlöslichkeit in Wasser” value in series [1] came to 50%.

Molecule `CC(C)(C)C(=O)NCC(OC(=O)C(C)(C)C)c1cccc(O)c1` (centres unmarked) [Verbindung 24, reference compound] showed a solubility in series [1] of 0.1 mg/mL (≈ 0.311 mM).

Take `NCC(O)c1cccc(O)c1` (racemic) [Norfenefrin, DL-1-(3'-Hydroxyphenyl)-2-aminoethanol, reference compound]: in series [2] (setting [4]), the change in vivo at 3 mg/kg was 18 ± 6%, the change in vivo at 10 mg/kg came to 25 ± 5% and the change in vivo at 30 mg/kg came out at 37 ± 9%. In series [2] (setting [5]), the change in vivo at 3 mg/kg worked out at 25 ± 9%, the change in vivo at 10 mg/kg is 34 ± 7% and the change in vivo at 30 mg/kg amounted to 41 ± 7%. Moreover, the “orale Wirksamkeit” value in series [3] is given as “geringe orale Wirksamkeit”.

As to `CC(C(=O)Oc1cccc(C(O)CN)c1)c1ccccc1` (centres unmarked) [Verbindung 16], the “Mindestlöslichkeit in Wasser” value in series [1] was 50%. In addition, in series [2] (setting [4]), the change in vivo at 1 mg/kg is 10 ± 3%, the change in vivo at 3 mg/kg came to 31 ± 8% and the change in vivo at 10 mg/kg was found to be 55 ± 13%. In addition, in series [2] (setting [5]), the change in vivo at 1 mg/kg is 20 ± 7%, the change in vivo at 3 mg/kg is 38 ± 12% and the change in vivo at 10 mg/kg was 63 ± 9%.

As for `CCCCCC(=O)Oc1cccc(C(O)CN)c1` (centres unmarked) [Verbindung 8], the “Mindestlöslichkeit in Wasser” value in series [1] is on record as 50%.

As for `CCCCCCC(=O)Oc1cccc(C(O)CN)c1.Cl` (centres unmarked) [Verbindung 12, 1-(3'-Heptanoyloxyphenyl)-2-aminoethanol-hydrochlorid], the “Mindestlöslichkeit in Wasser” value in series [1] was 50%. For the same molecule, in series [2] (setting [4]), the change in vivo at 1 mg/kg was 17 ± 7%, the change in vivo at 3 mg/kg is 65 ± 17% and the change in vivo at 10 mg/kg came to 51 ± 11%. Besides, in series [2] (setting [5]), the change in vivo at 1 mg/kg turned out to be 21 ± 8%, the change in vivo at 3 mg/kg worked out at 70 ± 14% and the change in vivo at 10 mg/kg stood at 61 ± 10%.

In series [1], `CC(=O)NCC(OC(C)=O)c1cccc(O)c1` (centres unmarked) [Verbindung 22, reference compound] showed a solubility of 12 mg/mL (≈ 50.6 mM).

As for `Cc1ccccc1C(=O)Oc1cccc(C(O)CN)c1` (centres unmarked) [Verbindung 19], the “Mindestlöslichkeit in Wasser” value in series [1] was found to be 50%. Also, in series [2] (setting [4]), the change in vivo at 1 mg/kg is 15 ± 7%, the change in vivo at 3 mg/kg is 21 ± 6% and the change in vivo at 10 mg/kg stood at 32 ± 11%. Besides, in series [2] (setting [5]), the change in vivo at 1 mg/kg came to 17 ± 5%, the change in vivo at 3 mg/kg stood at 26 ± 7% and the change in vivo at 10 mg/kg worked out at 37 ± 7%.

Turning to `CCC(=O)Oc1cccc(C(O)CN)c1` (centres unmarked) [Verbindung 2], the “Mindestlöslichkeit in Wasser” value in series [1] is listed as 50%.

`NCC(O)c1cccc(OC(=O)Cc2ccccc2)c1` (centres unmarked) [Verbindung 15]: the “Mindestlöslichkeit in Wasser” value in series [1] was 50%. Further, in series [2] (setting [4]), the change in vivo at 1 mg/kg was determined as 20 ± 4%, the change in vivo at 3 mg/kg stood at 36 ± 11% and the change in vivo at 10 mg/kg amounted to 81 ± 15%. For the same molecule, in series [2] (setting [5]), the change in vivo at 1 mg/kg was found to be 24 ± 3%, the change in vivo at 3 mg/kg worked out at 50 ± 11% and the change in vivo at 10 mg/kg was found to be 88 ± 15%.

The molecule `CC(=O)NCC(O)c1cccc(O)c1` (centres unmarked) [Verbindung 21, reference compound] displayed a solubility in series [1] of 100 mg/mL (≈ 512 mM).

With `CCCCCCCCCCCC(=O)Oc1cccc(C(O)CN)c1` (centres unmarked) [Verbindung 14], the concentration in solution in series [1] (solubility) came to 150 mg/mL (≈ 447 mM). Besides, in series [2] (setting [4]), the change in vivo at 1 mg/kg amounted to 16 ± 4%, the change in vivo at 3 mg/kg is 25 ± 8% and the change in vivo at 10 mg/kg is 90 ± 25%. In addition, in series [2] (setting [5]), the change in vivo at 1 mg/kg is 23 ± 6%, the change in vivo at 3 mg/kg worked out at 39 ± 9% and the change in vivo at 10 mg/kg worked out at 87 ± 15%.

For the molecule `CC(=O)Oc1cccc(C(O)CN)c1.Cl` (centres unmarked) [Verbindung 1, 1-(3'-Acetoxyphenyl)-2-aminoethanol-hydrochlorid], the “Mindestlöslichkeit in Wasser” value in series [1] was determined as 50%. In series [2] (setting [4]), the change in vivo at 1 mg/kg came out at 20 ± 10%, the change in vivo at 3 mg/kg worked out at 29 ± 6% and the change in vivo at 10 mg/kg is 48 ± 8%. For the same molecule, in series [2] (setting [5]), the change in vivo at 1 mg/kg was found to be 27 ± 10%, the change in vivo at 3 mg/kg was 35 ± 8% and the change in vivo at 10 mg/kg turned out to be 59 ± 6%.

In the case of `CC(C)C(=O)Oc1cccc(C(O)CN)c1` (centres unmarked) [Verbindung 4], in series [1], the “Mindestlöslichkeit in Wasser” value was found to be 50%.

`CC(C)(C)C(=O)NCC(O)c1cccc(O)c1` (centres unmarked) [Verbindung 23, reference compound] returned a solubility in series [1] of 10 mg/mL (≈ 42.1 mM).

Consider `CCCC(CC)(CC)C(=O)Oc1cccc(C(O)CN)c1` (centres unmarked) [Verbindung 13], for which, in series [1], the “Mindestlöslichkeit in Wasser” value is 50%.

For `CC(C)CC(=O)Oc1cccc(C(O)CN)c1` (centres unmarked) [Verbindung 6], the “Mindestlöslichkeit in Wasser” value in series [1] was determined as 50%.

In the case of `CC(C)CCC(=O)Oc1cccc(C(O)CN)c1` (centres unmarked) [Verbindung 9], the “Mindestlöslichkeit in Wasser” value in series [1] is 50%.

`CCCCC(=O)Oc1cccc(C(O)CN)c1` (centres unmarked) [Verbindung 5]: in series [1], the “Mindestlöslichkeit in Wasser” value stood at 50%. In series [2] (setting [4]), the change in vivo at 0.3 mg/kg worked out at 19 ± 11%, the change in vivo at 1 mg/kg was determined as 31 ± 8% and the change in vivo at 3 mg/kg was 29 ± 8%. Further, in series [2] (setting [5]), the change in vivo at 0.3 mg/kg amounted to 20 ± 10%, the change in vivo at 1 mg/kg was found to be 33 ± 7% and the change in vivo at 3 mg/kg is 42 ± 10%.

As to `CC(C)(C)CC(=O)Oc1cccc(C(O)CN)c1` (centres unmarked) [Verbindung 11], in series [1], the “Mindestlöslichkeit in Wasser” value worked out at 50%.

Molecule `CCC(C(=O)Oc1cccc(C(O)CN)c1)c1ccccc1` (centres unmarked) [Verbindung 17] had a solubility in series [1] of 200 mg/mL (≈ 668 mM). Further, in series [2] (setting [4]), the change in vivo at 1 mg/kg was 25 ± 7%, the change in vivo at 3 mg/kg is 31 ± 6% and the change in vivo at 10 mg/kg was 38 ± 6%. In series [2] (setting [5]), the change in vivo at 1 mg/kg was 29 ± 7%, the change in vivo at 3 mg/kg stood at 42 ± 9% and the change in vivo at 10 mg/kg was 47 ± 10%.
